Results: US20150057357A1, “BIS (THIOHYDRAZIDE AMIDE) COMPOUNDS FOR TREATING CANCERS” (The Board of Trustees of The Leland Stanford Junior …, priority 2012, published 2015)

Columns and labels:
[1] = test system: cell lines deficient in the hOOG1 DNA glycosylase (shOGG1-A and sh-OGG1-B); test: MTT drug sensitivity assay, base excision repair deficient cells; type: cell-based; conditions: shOGG1-A and sh-OGG1-B versus isogenic controls shCTRL-A and shCTRL-B; FIG. 3
Excerpt: (§1) Human breast cell lines represented the normal breast (MCF12A), basal-like breast cancer (BT549, HCC1806, MDAMB468), BRCA1-mutated breast cancer (HCC1937, SUM149PT, SUM1315MO2), and luminal breast cancer (BT474, MDAMB361, and T47D). Stable cell lines expressing shRNA to hOGG1 (shOGG1) or a non-targeting control (shCTRL) and BRCA1^+/+ and BRCA1^−/− mouse mammary epithelial cells have been previously described (E. Alli, V. B. Sharma, P. Sunderesakumar, J. M. Ford, Defective repair of oxidative dna damage in triple-negative breast cancer confers sensitivity to inhibition of poly(ADP-ribose) polymerase, Cancer Res, 69, 2009, 3589-3596). All cell lines were maintained at 37° C. and 5% CO2.
(§2) Cells were exposed to increasing concentrations of elesclomol and incubated at 37° C. in the presence of 5% CO2 for 96 hours. Cellular sensitivity was then determined by MTT assay and expressed as a percentage of the vehicle control (DMSO). Each data point represents the average of quadruplicate determinations +/−S.D. Images were obtained under 10× objective and are representative.
Two different cell lines deficient in the hOOG1 DNA glycosylase that initiates base excision repair (shOGG1-A and sh-OGG1-B) and their isogenic control cells lines (shCTRL-A and shCTRL-B) were examined for sensitivity to elesclomol.

[2] = test system: normal breast cells (MCF12A); test: MTT drug sensitivity assay, normal breast cells; type: cell-based, human; conditions: concentrations of up to 1 μM, 96 hours, FIG. 2
Excerpt: as §1, §2
(§3) Cell lines that represent the normal breast or BRCA1-mutated, basal-like or luminal breast cancers were examined for sensitivity to elesclomol. Shown in FIG. 1 are images of BRCA-1 mutated, basal-like or luminal breast cancer cell cultures after treatment with 0 μM, 0.2 μM or 1 μM elesclomol. […]

[3] = test system: luminal breast cancer cells (BT474, MDAMB361, T47D); test: MTT drug sensitivity assay, luminal breast cancer cells; type: cell-based, human; conditions: concentrations of up to 1 μM, 96 hours, FIG. 2
Excerpt: as §1, §2, §3

[4] = test system: basal-like breast cancer cells (BT549, HCC1806, MDAMB468); test: MTT drug sensitivity assay, basal-like breast cancer cells; type: cell-based, human
Excerpt: as §1, §2, §3

[5] = test system: BRCA1-mutated breast cancer cells (HCC1937, SUM149PT, SUM1315MO2); test: MTT drug sensitivity assay, BRCA1-mutated breast cancer cells; type: cell-based, human
Excerpt: as §1, §2, §3

CN(NC(=O)CC(=O)NN(C)C(=S)c1ccccc1)C(=S)c1ccccc1 [elesclomol]
sensitivity to elesclomol (cell viability, MTT) [1]: increased sensitivity
effect of treatment on cells (cell death) [2]: remained unaffected
effect of treatment on cells (cell death) [3]: remained unaffected
sensitivity to elesclomol (cellular viability dose-response) ([4]; basal-like breast cancers compared to normal breast cells or luminal breast cancer cells, FIG. 1, FIG. 2): increased sensitivity
induced cell death ([4]; concentrations of up to 1 μM, 96 hours, basal-like breast cancer cells, FIG. 2): up to 75%
sensitivity to elesclomol (cellular viability dose-response) ([5]; BRCA1-mutated breast cancers compared to normal breast cells or luminal breast cancer cells, FIG. 1, FIG. 2): increased sensitivity
induced cell death ([5]; concentrations of up to 1 μM, 96 hours, BRCA1-mutated breast cancer cells, FIG. 2): up to 95%
